The record followed here is ChEMBL document CHEMBL3507680, “University of Dundee, Gates Library screen for HepG2 cell viability”.

Each structure is given as a SMILES string.

The nature of the data set: Human HepG2 cell viability assay in 384 well format. Format: toxicity, cell-based. On the set-up: dose 125 nL, time 70.5 hour; cytotoxicity at 70.5 h: concentration not given beside the values. As to conditions: HepG2 cells, read-out: Inhibition.
In the case of `Cc1ccc(CNC(=O)N2CCN(S(C)(=O)=O)CC2)n1C`, the cytotoxicity at 70.5 h is -6.21%.
For `COCCNC(=O)[C@@H]1C[C@H]2[C@H](CCN2c2cc(OC)ncn2)O1`, the cytotoxicity at 70.5 h is -10.5%.
For `CCOc1ccccc1OC1CCN(C(=O)c2nc(=O)[nH][nH]2)CC1` the value was 27.9%; for `Cc1ncncc1C(=O)N1CCCN(Cc2cnn(C(C)C)c2)CC1`, 8.58%.
For `Cc1nn(C)c(C)c1CCC(=O)N1CCCC1Cn1cccn1` (centres undefined) the value was -2.38%; for `CS(=O)(=O)Cc1ccc(C(=O)N2CCCC(n3cncn3)C2)o1` (centres undefined), 1.66%.
To `CCCN1CCCn2nc(CNS(=O)(=O)c3cnn(CC)c3)cc2C1` belongs -3.06%.
Take `CC(C)CNC(=O)c1cn(-c2ccccn2)c(=O)c2ccccc12`: the cytotoxicity at 70.5 h was -7.97%.
To `CCc1cnc(C)nc1NC(CC)c1cnn(C)c1` (centres undefined) belongs -2.39%; to `CN1CCN(c2ccc(F)cc2C(N)=O)CC1`, -12.1%.
To `CC(=O)c1ccc(-n2c(C)cn(CCC(=O)NC(N)=O)c2=O)cc1` belongs -14.8%; to `CN(CCC(F)(F)F)Cc1nc2ccccc2c(=O)[nH]1`, -3.56%.
On to `COCCN(CCC#N)S(=O)(=O)c1cc(F)cc(F)c1`, for which the cytotoxicity at 70.5 h came to 3.86%.
To `COCCN1CCC2(CC1)CC1(CCN(S(C)(=O)=O)CC1)N(C)C2=O` belongs -7.2%; to `Cc1nc(CN2CCN(CC(=O)Nc3c(C)cccc3C)CC2)no1`, -5.01%; to `COC(=O)C1CN(CC(=O)Nc2cccc(OC)c2)c2ccccc21` (centres undefined), -9.39%.
As to `Cc1nnc(CSc2n[nH]c(-c3ccccn3)n2)o1`, the cytotoxicity at 70.5 h was -7.45%.
Consider `CN(C)c1cccc(C(=O)N2CCn3c(nnc3-c3ccccc3)C2)c1`, for which the cytotoxicity at 70.5 h is -7.74%.
To `Cc1nc(CN(C)S(=O)(=O)c2ccccc2Br)no1` belongs -3.75%; to `CCCNC(=O)CNc1ccccc1OCCC(=O)OC`, -7.23%.
To `CN(C)CCN(Cc1cccc(F)c1)C(=O)c1ccc2nccn2c1` belongs -43.4%; to `CCNC(=O)[C@@H]1CCCN1[C@@H](C(=O)NC)c1ccccc1`, -8.33%; to `CCS(=O)(=O)c1ccc2c(c1)N1CCS(=O)(=O)N=C1O2`, -15.4%.
Take `O=C(C1CCCC1)N1CC2(CCN(C3COC3)C2)OCc2ccccc21` (centres undefined): the cytotoxicity at 70.5 h was -17.3%.
To `CCc1cc(N[C@@H]2C[C@H]3CC[C@@H]2C3)n2nccc2n1` belongs -6.76%; to `CC(C)C(C)N(C)C(=O)COc1ccccc1C#N` (centres undefined), 1.38%; to `Cc1ccc(C)c(S(=O)(=O)CCN2CCCC2Cn2cccn2)c1` (centres undefined), -7.12%.
To `O=C(c1ccncc1)N1CCCC1c1nc(O)cc(-c2ccccn2)n1` (centres undefined) belongs -2.92%; to `COCCNC(=O)CN1CCCC1c1c(C)nn(C)c1Cl` (centres undefined), -1.71%; to `CN(CCc1ncnn1-c1ccccc1Cl)C1CCS(=O)(=O)C1` (centres undefined), -17.7%.
For the compound `COc1ccc2nnc(CCCC(=O)NCc3ccccc3F)n2n1`, the cytotoxicity at 70.5 h is 21.9%.
To `CCN(CC1CCOC1)C(=O)c1cnc2onc(C)c2c1` (centres undefined) belongs -8.61%; to `CCN(CC)c1ccc(NC(=O)NC(C)Cn2cccn2)cn1` (centres undefined), -6.74%; to `O=C(N1CCCC(n2cncn2)C1)C1(c2ccc(Cl)cc2)CCC1` (centres undefined), -7.28%.
To `c1cnnc(N2CCCC2CNc2ncnc3ccccc23)c1` (centres undefined) belongs 11.3%.
In the case of `CCS(=O)(=O)NC1CCc2c(ccc(=O)n2CC2CC2)C1` (centres undefined), the cytotoxicity at 70.5 h was -7.75%.
Take `O=C1CC2(CCN(Cc3cccnc3)C2)CN1c1cncnc1` (centres undefined): the cytotoxicity at 70.5 h is -2.69%.
For `O=C(NCCCO)c1nnsc1-c1ccccc1` the value was -0.82%; for `CN1CCN(S(=O)(=O)c2cccnc2)c2cnccc21`, -3.64%; for `Cc1cccc(-c2nc(CN3CC(n4nc(C)cc4C)C3)no2)c1`, -4.09%.
As for `CN1CCC(Cc2noc(-c3cn(Cc4ccccc4Cl)nn3)n2)CC1`, the cytotoxicity at 70.5 h turned out to be 0.52%.
For `COc1ccc(C[C@H]2CNCC[C@@H]2OC)cc1` the value was -5.86%; for `CCn1nc(C)c(C(=O)Nc2ccc3c(c2)C(C)(C)C(=O)N3C)c1C`, -0.0352%.
For `Cn1cc(CN2CCC(c3cc(COc4ccc(Cl)cc4)[nH]n3)C2)cn1` (centres undefined) the value was 0.81%.
For `CC(C)CN(CC(=O)O)C(=O)c1ccc(F)cc1` the value was 4.28%; for `Cc1ccc(S(=O)(=O)Nc2ccc(-n3ccnc3C)nc2)cc1N(C)C`, -2.22%.
For `CC(=O)N1CCCC2(CN(Cc3ccc(C)s3)CCO2)C1` (centres undefined), the cytotoxicity at 70.5 h came to 0.871%.
Take `Cc1ccc(CC2CCCN2CC(=O)NCc2cccnc2)cc1` (centres undefined): the cytotoxicity at 70.5 h was -15.4%.
For `CC(C)NC(=O)N1CCCCCC1C1CCN(c2ncccn2)CC1` (centres undefined) the value was 19.7%; for `Cc1ncc(CNC(=O)N(C)C2CCN(c3ccccc3)C2=O)s1` (centres undefined), 3.88%.
To `CN1CCCCC12Cc1ccccc1CN(C(=O)c1ccccc1)C2` (centres undefined) belongs -5.36%.
For `CC(=O)N1CCC(c2nn(C)c(=O)n2-c2ccccc2)CC1` the value was -1.32%; for `CCCC(=O)N(CCCN1CCOCC1)c1nc2c(C)c(C)ccc2s1`, -14.7%.
Consider `CN(Cc1nnc2n1CCC2)C(=O)Cc1ccc2c(c1)OCCO2`, for which the cytotoxicity at 70.5 h was -4.37%.
To `CN(Cc1n[nH]c(=O)n1Cc1ccccc1F)S(C)(=O)=O` belongs 5.65%.
For `CCN1CCN(C(=O)c2[nH]c3ccccc3c2Cl)[C@H]2CS(=O)(=O)C[C@H]21` the value was -2.45%.
With `Cc1ccc(C)c(CS(=O)(=O)CC(=O)NC(C)c2ccc(F)cc2F)c1` (centres undefined), the cytotoxicity at 70.5 h was found to be 8.01%.
To `COc1cc(N2CCC3(CCCN(C(=O)c4cnccn4)C3)C2)ncn1` (centres undefined) belongs 17%; to `Cc1cnc(NC(=O)c2cccc(CN(C)Cc3snnc3C)c2)s1`, -4.01%; to `Cc1cc(C)c(CNC(=O)N(C)Cc2ccc3c(c2)OCO3)c(=O)[nH]1`, -3.96%.
For `Cn1cc(CCC(=O)NC(c2ccc(F)cc2)C(F)(F)F)cn1` (centres undefined) the value was -8.97%.
Regarding `CN(C)c1cccc(C(=O)Nc2cn(C)c(=O)n(C)c2=O)c1`, the cytotoxicity at 70.5 h was -3.1%.
For `CC(NC(=O)c1csnn1)c1ccc(OCC2CC2)c(F)c1` (centres undefined) the value was 14.5%.
For `COc1ccc(NC(=O)c2cnc(C3CCN(C(C)=O)C3)nc2C)cc1` (centres undefined), the cytotoxicity at 70.5 h was found to be 17.3%.
`Cc1cccc(NCc2nc(C)ccc2O)c1`: the cytotoxicity at 70.5 h was -1.28%.
For `CC(C)CNC(=O)[C@H]1C[C@@H]2CN(C(=O)Nc3ccc(F)cc3)C[C@H]1O2`, the cytotoxicity at 70.5 h is -26.4%.
To `CCc1c(C)sc2ncnc(N3C[C@H](O)[C@@H](N4CCCC4)C3)c12` belongs -2.63%.
For `CCSCCn1c(=O)n(Cc2ccc(F)cc2)c2ncc(C(=O)O)cc21` the value was -4.52%.
To `OCC1(CCOc2ccccc2)CCCN(c2ccc(Cl)cn2)C1` (centres undefined) belongs -2.17%; to `CC(C)OC(=O)N1CCCCC1CCn1cccn1` (centres undefined), -7.8%.
With `Cc1csc(N2CCN(C(=O)CCn3cncn3)CC2)n1`, the cytotoxicity at 70.5 h was -7.97%.
To `CC(=O)N1CCC(=O)N(C2CCCC2)Cc2ccccc21` belongs 7.97%; to `CCn1c(CC2CCNCC2)nn(Cc2ccc(C(=O)NC)o2)c1=O`, -11.7%; to `O=S(=O)(NCCCn1cncn1)c1ccc2c(c1)OCCO2`, -3.62%.
For `Cc1cc(CNCc2c(C(C)C)nn(C)c2N2CCOCC2)no1` the value was -6.34%; for `Cc1nccn1CCN(C)C(=O)c1cn(CC2CCCCC2)nn1`, -25.4%; for `CCn1ccc2ccc(CN3CCCC3c3nc(C(C)C)no3)cc21` (centres undefined), -10.7%.
As for `CN(C)S(=O)(=O)N1CCCC(CCC(=O)Nc2ccc(Cl)cc2)C1` (centres undefined), the cytotoxicity at 70.5 h came out at 42.2%.
On to `CCCN(C)S(=O)(=O)NC(=O)c1ccc(CC)o1`, for which the cytotoxicity at 70.5 h was determined as 0.645%.
To `O=C(Cc1ccc2c(c1)CCC2)N1CCCC(n2cccn2)C1` (centres undefined) belongs -6.54%; to `CC1Oc2c(cccc2C(=O)N2CCN(CC(C)(C)O)CC2)NC1=O` (centres undefined), -10.7%.
To `COCCNc1nnc(-c2cnc(C)cn2)s1` belongs -3.71%; to `Cc1nc(C2CN(Cc3scnc3C)CCO2)cc(N(C)C)n1` (centres undefined), 5.46%.
To `O=C(Nc1ccc2c(ccn2CCN2CCOCC2)c1)c1ccccn1` belongs -3.62%; to `NC(=O)CN1CCN(c2ccnc3c(F)ccc(F)c23)CC1`, -1.57%; to `CC(C)N1CCC(CC(=O)NC(C(=O)O)c2cccc(F)c2)CC1` (centres undefined), -5.14%.
On to `O=C(C1CN(Cc2ccsc2)Cc2ccnn2C1)N1CCCC1` (centres undefined), for which the cytotoxicity at 70.5 h worked out at 2.84%.
To `COc1cc(S(=O)(=O)N2CCc3ccc(Cl)cc32)cc(C(=O)O)c1OC` belongs -8.43%; to `NC(=O)c1cn2cc(-c3ccccc3Cl)n(CC3CC3)c(=O)c2n1`, -9.1%.
For `Cc1ccc(-n2ccnc2-c2cn(C3CCNCC3)nn2)c(Cl)c1` the value was 2.06%; for `CC(C)c1cc(NCC(O)c2ccncc2)n2nccc2n1` (centres undefined), 14.4%.
For `CCc1noc(C(C)N2CCOCC2)n1` (centres undefined) the value was 3.88%; for `O=C(CCNc1ncccn1)NCCOc1ccc2c(c1)CCC2`, -16.3%; for `CCc1cc(C(=O)N2CCC(Nc3ccc(C)nn3)CC2)sc1C`, -2.56%.
`O=C(c1ccc[nH]1)N1CC2(CCN(c3ncccn3)C2)C1`: the cytotoxicity at 70.5 h worked out at 1.3%.
In the case of `COc1ccc(CN(C(=O)C2CCCOC2)c2ccncc2)cc1` (centres undefined), the cytotoxicity at 70.5 h is -3.58%.
For `CCn1ccnc1CN(C)c1cc(C2CC2)ncn1` the value was -5.12%; for `Cn1ncc2c(NCCOc3ccc(F)cc3)nc(C3CCCC3)nc21`, 0.952%; for `CCN(CC)CCn1ccnc1-c1[nH]cnc1C`, 3.84%.
